{
  "source": "patent US9550808B2",
  "about": "“Peptide inhibitors of nicotinic acetylcholine receptor” (LIMITED LIABILITY COMPANY SYNEURO, priority 2013, dated 2017)",
  "key": {"[1]": {"biological_target": "T1, muscle-type nicotinic acetylcholine receptor (α1, β1, δ and ε-subunits) (Homo sapiens, UniProt P02708+Q04844+Q07001)", "T1 construct": "expressed in transfected cells; host or cells: Xenopus laevis oocytes (nuclear injection of plasmids, CMV promoter)", "T1 sequence (P02708 21-457)": "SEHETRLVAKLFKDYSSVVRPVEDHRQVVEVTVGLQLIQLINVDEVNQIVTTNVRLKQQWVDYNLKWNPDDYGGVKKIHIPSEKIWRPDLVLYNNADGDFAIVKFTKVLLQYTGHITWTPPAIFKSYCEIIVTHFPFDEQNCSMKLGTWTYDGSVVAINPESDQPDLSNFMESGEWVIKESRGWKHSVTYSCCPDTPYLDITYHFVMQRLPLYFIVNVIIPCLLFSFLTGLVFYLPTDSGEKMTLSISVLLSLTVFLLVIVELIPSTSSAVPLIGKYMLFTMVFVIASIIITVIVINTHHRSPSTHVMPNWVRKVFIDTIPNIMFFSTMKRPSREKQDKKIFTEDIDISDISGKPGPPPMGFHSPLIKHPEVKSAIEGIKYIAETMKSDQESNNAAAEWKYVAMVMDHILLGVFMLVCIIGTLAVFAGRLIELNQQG", "T1 sequence (Q04844 21-493)": "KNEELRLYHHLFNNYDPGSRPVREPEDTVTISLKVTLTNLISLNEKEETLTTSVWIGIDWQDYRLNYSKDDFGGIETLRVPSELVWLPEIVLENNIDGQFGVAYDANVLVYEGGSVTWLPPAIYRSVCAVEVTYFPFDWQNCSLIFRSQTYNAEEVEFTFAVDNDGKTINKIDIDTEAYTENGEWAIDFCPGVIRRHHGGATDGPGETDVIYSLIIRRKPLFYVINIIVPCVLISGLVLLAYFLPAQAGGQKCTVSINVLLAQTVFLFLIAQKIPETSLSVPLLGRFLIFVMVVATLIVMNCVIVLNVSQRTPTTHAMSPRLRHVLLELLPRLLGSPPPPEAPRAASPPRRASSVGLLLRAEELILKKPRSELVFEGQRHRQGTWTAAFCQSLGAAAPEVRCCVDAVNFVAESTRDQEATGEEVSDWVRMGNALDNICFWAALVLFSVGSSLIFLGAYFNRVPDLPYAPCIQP", "T1 sequence (P11230 24-501, further chain)": "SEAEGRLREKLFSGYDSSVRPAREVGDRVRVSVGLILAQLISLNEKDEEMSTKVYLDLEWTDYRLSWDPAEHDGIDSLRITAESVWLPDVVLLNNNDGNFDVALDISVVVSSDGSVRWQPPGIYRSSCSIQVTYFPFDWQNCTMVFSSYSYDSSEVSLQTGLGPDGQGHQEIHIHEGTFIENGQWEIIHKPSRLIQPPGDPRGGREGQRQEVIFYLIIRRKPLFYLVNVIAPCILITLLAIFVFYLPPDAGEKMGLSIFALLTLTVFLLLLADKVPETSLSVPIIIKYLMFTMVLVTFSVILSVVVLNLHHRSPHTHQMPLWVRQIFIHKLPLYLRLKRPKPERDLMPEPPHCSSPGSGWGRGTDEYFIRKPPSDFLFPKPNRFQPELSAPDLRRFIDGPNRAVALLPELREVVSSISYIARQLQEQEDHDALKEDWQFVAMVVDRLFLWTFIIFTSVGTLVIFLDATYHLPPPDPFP", "T1 sequence (Q07001 22-517)": "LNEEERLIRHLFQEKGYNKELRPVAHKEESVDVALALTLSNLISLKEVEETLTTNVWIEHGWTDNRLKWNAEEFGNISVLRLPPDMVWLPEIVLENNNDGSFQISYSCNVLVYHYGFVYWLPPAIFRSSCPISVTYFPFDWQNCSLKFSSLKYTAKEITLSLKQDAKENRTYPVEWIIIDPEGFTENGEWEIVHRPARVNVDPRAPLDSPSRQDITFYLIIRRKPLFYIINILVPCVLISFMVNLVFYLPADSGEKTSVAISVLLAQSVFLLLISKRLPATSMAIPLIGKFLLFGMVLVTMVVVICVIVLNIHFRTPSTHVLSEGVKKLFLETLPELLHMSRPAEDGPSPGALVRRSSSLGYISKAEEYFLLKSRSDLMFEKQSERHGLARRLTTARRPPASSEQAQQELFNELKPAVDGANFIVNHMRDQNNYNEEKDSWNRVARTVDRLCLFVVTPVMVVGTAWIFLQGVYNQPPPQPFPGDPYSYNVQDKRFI", "assay": "Inhibition of acetylcholine-induced current through muscle-type nAChR expressed in Xenopus laevis oocytes (two-electrode voltage clamp)", "type": "cell-based", "settings": "for inhibiting activity towards the muscle receptor, retrosequences compared with initial Az3 and [Tyr2]Az3: 1 mM"}, "mimic wrinkles": {"tested_on": "mimic wrinkles", "settings": "cited from earlier work"}, "male Balb mice": {"tested_on": "male Balb mice", "assay": "Acute toxicity in mice (intraperitoneal and per os)", "type": "in vivo", "settings": "for acute toxicity after intraperitoneal administration: male Balb mice, 1, 3, 10 and 30 mg/kg i.p.; for acute toxicity per os (administration into the stomach): male Balb mice, 2.5, 10, 40, 160 mg/kg per os", "description": "Estimation of acute toxicity (LD50) after intraperitoneal administration of peptide H-Trp-Trp-Pro-Lys-Pro-OH (SEQ ID NO: 1) was carried out on 40 male Balb mice weighting 20-23 g, separated into five equal groups. Mice were intraperitoneally injected with the peptide at doses of 1 mg/kg, 3 mg/kg, 10 mg/kg and 30 mg/kg in 0.2 ml sterile 0.9% NaCl solution. Control animals were injected with same volume of 0.9% NaCl.\nInvestigation of acute toxicity (LD50 per os) after administration of the peptide directly into a stomach by a special catheter was conducted on 40 male Balb mice weighting 20-23 g. Animals were randomly divided into 5 groups. The drug was applied at doses 2.5 mg/kg, 10 mg/kg, 40 mg/kg, 160 mg/kg in 0.2 ml sterile solution of 0.9%. Control animals were injected with the same volume of 0.9% NaCl."}, "[2]": {"settings": "cream containing 5% Vialox, 28-day application"}},
  "note": "Non-standard residues stand in square brackets, D forms with d. Residues, ends and D or L forms follow the SMILES beside them. *: point of attachment. Dab = NCC[C@H](N)C(=O)O; NHBn = c1ccc(CN*)cc1; βAla = NCCC(=O)O",
  "data": [
    {"molecule": "PKPYW", "values": [
      {"measurement": "inhibiting activity towards the muscle receptor, retrosequences compared with initial Az3 and [Tyr2]Az3", "setting": "[1]", "value": "reduced"}
    ]},
    {"molecule": "DNWWPKPPHQGPRPPRPRPKP [azemiopsin, reference compound]", "values": [
      {"measurement": "blockage of the muscle receptor activity", "setting": "[1]; 50 μM, 20 μM acetylcholine (FIG. 1)", "value": "Complete blockage"}
    ]},
    {"molecule": "H-WYPKP-NH2 [SEQ ID NO: 42, H-Trp-Tyr-Pro-Lys-Pro-NH2]", "values": [
      {"measurement": "IC50", "setting": "[1]", "value": 23, "unit": "µM"},
      {"measurement": "times more functionally active than commercial analogue Syn-Ake", "setting": "[1]; ratio of IC50 values", "value": "eight"}
    ]},
    {"molecule": "H-Gly-Pro-Arg-Pro-Ala-NH2 (H-GPRPA-NH2) [Vialox]", "values": [
      {"measurement": "reduction of skin roughness", "setting": "mimic wrinkles; [2]", "value": "up to 47%"},
      {"measurement": "reduction of wrinkle size", "setting": "mimic wrinkles; [2]", "value": "up to 49%"}
    ]},
    {"molecule": "PKPWW", "values": [
      {"measurement": "inhibiting activity towards the muscle receptor, retrosequences compared with initial Az3 and [Tyr2]Az3", "setting": "[1]", "value": "reduced"}
    ]},
    {"molecule": "Ac-Glu-Glu-Met-Gln-Arg-Arg-NH2 (Ac-EEMQRR-NH2) [argireline, cosmetic hexapeptide repeating a fragment of SNAP 25]", "values": [
      {"measurement": "decrease in the depth of mimic wrinkles", "setting": "mimic wrinkles; cream containing 10% argireline, topical 30-day use, volunteers", "value": 30, "unit": "%"}
    ]},
    {"molecule": "H-WWPKP-OH [SEQ ID NO: 1, H-Trp-Trp-Pro-Lys-Pro-OH]", "values": [
      {"measurement": "acute toxicity after intraperitoneal administration", "setting": "male Balb mice", "value": "did not reveal any toxic effects"},
      {"measurement": "acute toxicity after intraperitoneal administration", "setting": "male Balb mice; listed as SEQ ID NO:1", "value": "does not exhibit toxicity"},
      {"measurement": "acute toxicity per os (administration into the stomach)", "setting": "male Balb mice", "value": "no toxic effect was observed"},
      {"measurement": "acute toxicity per os (administration into the stomach)", "setting": "male Balb mice; listed as SEQ ID NO:1", "value": "does not exhibit toxicity"},
      {"measurement": "inhibition of acetylcholine induced currents, comparison of overlapping pentapeptide fragments of azemiopsin", "setting": "[1]; 150 μg/ml (FIG. 2)", "value": "most active"}
    ]},
    {"molecule": "NCCC(=O)N1CCC[C@H]1C(=O)N[C@@H](CCN)C(=O)NCc1ccccc1", "note": "[Syn-Ake, H-β-Ala-Pro-Dab-NHBzl] (H-[βAla]-Pro-[Dab]-NHBn)", "values": [
      {"measurement": "IC50", "setting": "[1]", "value": 180, "unit": "µM"},
      {"measurement": "decrease of depth of wrinkles on foreheads", "setting": "mimic wrinkles; cream containing 4% Syn-Ake, 28-day application, volunteers", "value": "up to 52%"}
    ]},
    {"molecule": "H-Tyr-D-Ala-Gly-Phe-Leu-OH [Leuphasyl]", "values": [
      {"measurement": "enhancement of argireline effect", "setting": "mimic wrinkles; Leuphasyl in combination with argireline", "value": 1.5, "unit": "fold"}
    ]}
  ]
}
